Measured values: patent US20230302022A1, “PREVENTING OR MITIGATING CHEMOTHERAPY INDUCED ALOPECIA USING VITAMIN D” (priority 2016, published 2023)

Key:
[1] = system: MIAC51 (chloroleukemia cells); assay: Chloroleukemia (MIAC51) in rats: cure / survival under chemotherapy with topical calcitriol; type: in vivo, rat; details: CTX, after Two Rounds of Chemotherapy
Experimental: For experiments in which rats were transplanted with chloroleukemia, on Day 5 after birth, rats were randomly divided into three groups of 45 each. All rats received 1×10^5 chloroleukemic cell line MIAC51 (i.p.) in 0.1 mL of serum free (SF) RPMI. MIAC51 were cultured in RPMI 1640 supplemented with L-glutamine and 10% fetal bovine serum at 37° C. in a 5% CO2, 100% humidity incubator. Cells were grown to 50% confluency (1.5×106 mL) collected in 50 mL conical tubes, centrifuged at 600 g×10 min. at room temperature and resuspended in SF-RPMI at a concentration of 1×10^6/mL. Group 1 rats received no further treatment. Group 2 rats received topical vehicle and CTX on day 13. […] Topical applications were performed as described above.
On day 23 after birth, a sample of blood was taken from all rats and differentials performed. Rats with leukemia were sacrificed, rats without leukemia were kept and a second differential performed on day 31, at any point if leukemia was detected, animals were sacrificed by CO2 asphyxiation.
On day 5 after birth all rats received 1×105 MIAC51 intraperitoneally in 0.1 mL of serum free (SF) RPMI. MIAC51 were cultured in RPMI 1640 supplemented with L-glutamine and 10% fetal bovine serum at […] in a 5% CO2, 100% humidity incubator. Cells were grown to 50% confluency (1.5×106 mL) collected in 50 mL conical tubes, centrifuged at 600 g for 10 minutes at room temperature and resuspended in SF-RPMI at a concentration of 1×10^6/mL prior to injection.
[…]

Long Evans rats = assay: CIA in chloroleukemic Long Evans rats receiving multi-course chemotherapy; type: in vivo, rat; details: for ALOPECIA 4+ (number of rats): Cyclophosphamide (CTX)

Structure (SMILES): O=P1(N(CCCl)CCCl)NCCCO1 (centres unmarked) [CTX, Cyclophosphamide]
- Survival Rate, % [1]: 20%
- Cured (number of rats) ([1]; of 40): 8
- ALOPECIA 4+ (number of rats) (Long Evans rats; after First Round of Chemotherapy): 40
- ALOPECIA 4+ (number of rats) (Long Evans rats; after Second Round of Chemotherapy): 8
- extent of alopecia (grade), all rats (Long Evans rats; cyclophosphamide regimen, after the first round of chemotherapy): +4
